Laboratory results published in PubChem BioAssay AID248 (DTP/NCI, 2004).
Inconclusive results and toxic doses are left out. No stated cut-off is given here; in the data, active means T/C of 150% or more; inactive means T/C below 125%.

Tested on: L1210 leukemia ip in BDF1 mice, survival T/C
Experiment: NCI In Vivo Anticancer Drug Screen. Data for tumor model L1210 Leukemia (intraperitoneal) in B6D2F1 (BDF1) mice
Conditions: endpoint: mean survival time, higher = longer survival
Summary of the method: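 Mice bearing the transplanted tumor received compound or vehicle. Survival of the treated group was divided by that of the vehicle-treated control group to give the ratio.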

[1] = dose: 100.0 mg/kg/injection, schedule: Q04DX003 (ip), vehicle: saline
[2] = dose: 200.0 mg/kg/injection, schedule: Q01DX009 (ip), vehicle: saline
[3] = dose: 200.0 mg/kg/injection, schedule: Q04DX003 (ip), vehicle: saline
[4] = dose: 400.0 mg/kg/injection, schedule: Q04DX003 (ip), vehicle: saline

Measured: T/C

COc1ccc(OC)c(-c2cc(-c3ccccc3)nc(-c3cccc([N+](=O)[O-])c3)c2)c1
inactive: dose: 100.0 mg/kg/injection, schedule: Q04DX002 (ip), vehicle: gum acacia 102 % of control | dose: 200.0 mg/kg/injection, schedule: Q04DX002 (ip), vehicle: gum acacia 97 % of control | dose: 400.0 mg/kg/injection, schedule: Q04DX002 (ip), vehicle: gum acacia 91 % of control

Cc1cc(C)cc(C(O)(C(=O)O)c2ccccc2)c1 (stereo not drawn)
inactive: dose: 75.0 mg/kg/injection, schedule: Q01DX001 (ip), vehicle: other 103 % of control | dose: 150.0 mg/kg/injection, schedule: Q01DX001 (ip), vehicle: other 103 % of control | dose: 300.0 mg/kg/injection, schedule: Q01DX001 (ip), vehicle: other 106 % of control

CC12CCC(=O)C=C1CCC1C2CCC2(C)C(C(=O)COC(=O)c3cc([N+](=O)[O-])c(N4CC4)c([N+](=O)[O-])c3)CCC12 (stereo not drawn)
inactive: dose: 50.0 mg/kg/injection, schedule: Q01DX001 (sc), vehicle: steriod suspending solution 95 % of control | dose: 60.0 mg/kg/injection, schedule: Q01DX015 (ip), vehicle: saline 88 % of control | dose: 90.0 mg/kg/injection, schedule: Q01DX015 (ip), vehicle: saline 86 % of control | dose: 100.0 mg/kg/injection, schedule: Q01DX001 (sc), vehicle: steriod suspending solution 106 % of control | dose: 135.0 mg/kg/injection, schedule: Q01DX015 (ip), vehicle: saline 88 % of control | dose: 200.0 mg/kg/injection, schedule: Q01DX001 (sc), vehicle: steriod suspending solution 97 % of control | dose: 200.0 mg/kg/injection, schedule: Q01DX015 (ip), vehicle: saline 91 % of control | dose: 400.0 mg/kg/injection, schedule: Q01DX001 (sc), vehicle: steriod suspending solution 101 % of control

O=C1NC2c3ccccc3CC12 (stereo not drawn)
inactive: dose: 100.0 mg/kg/injection, schedule: Q01DX001 (ip), vehicle: saline with Tween-80 95 % of control | dose: 200.0 mg/kg/injection, schedule: Q01DX001 (ip), vehicle: saline with Tween-80 92 % of control | dose: 400.0 mg/kg/injection, schedule: Q01DX001 (ip), vehicle: saline with Tween-80 89 % of control

CC(=O)n1cc(CS)c(=O)[nH]c1=O
inactive: dose: 100.0 mg/kg/injection, schedule: Q01DX001 (ip), vehicle: saline 106 % of control

COc1ccc(/C=C2/CSC/C(=C/c3ccc(OC)c(OC)c3)C2=O)cc1OC
inactive: [1] 103 % of control | [2] 86 % of control | [3] 94 % of control | [4] 94 % of control

N=C1c2ccccc2-c2nc3ccccc3c(=O)n21
inactive: dose: 100.0 mg/kg/injection, schedule: Q04DX002 (ip), vehicle: saline 86 % of control | dose: 200.0 mg/kg/injection, schedule: Q04DX002 (ip), vehicle: saline 93 % of control | dose: 400.0 mg/kg/injection, schedule: Q04DX002 (ip), vehicle: saline 89 % of control

N=C(N)COc1ccccc1
inactive: dose: 100.0 mg/kg/injection, schedule: Q01DX001 (ip), vehicle: saline sonified 101 % of control | dose: 200.0 mg/kg/injection, schedule: Q01DX001 (ip), vehicle: saline sonified 97 % of control | dose: 400.0 mg/kg/injection, schedule: Q01DX001 (ip), vehicle: saline sonified 95 % of control

Cc1ccnc(NS(=O)(=O)c2ccc(NC(=O)c3ccc(C(=O)Nc4ccc(S(=O)(=O)Nc5nccc(C)n5)cc4)cc3)cc2)n1
inactive: dose: 3.87 mg/kg/injection, schedule: Q01DX015 (ip), vehicle: methylcellulose (MC) 96 % of control | dose: 7.75 mg/kg/injection, schedule: Q01DX015 (ip), vehicle: methylcellulose (MC) 101 % of control | dose: 15.5 mg/kg/injection, schedule: Q01DX015 (ip), vehicle: methylcellulose (MC) 104 % of control | dose: 31.0 mg/kg/injection, schedule: Q01DX015 (ip), vehicle: methylcellulose (MC) 104 % of control | dose: 62.0 mg/kg/injection, schedule: Q01DX015 (ip), vehicle: methylcellulose (MC) 94 % of control | dose: 125.0 mg/kg/injection, schedule: Q01DX015 (ip), vehicle: methylcellulose (MC) 101 % of control | dose: 250.0 mg/kg/injection, schedule: Q01DX015 (ip), vehicle: methylcellulose (MC) 100 % of control | dose: 500.0 mg/kg/injection, schedule: Q01DX015 (ip), vehicle: methylcellulose (MC) 102 % of control

O=[N+]([O-])c1ccc(C2N=NCCS2)cc1 (stereo not drawn)
inactive: dose: 100.0 mg/kg/injection, schedule: Q01DX001 (ip), vehicle: Klucel (hydroxypropylcellulose) (HPC) 98 % of control | dose: 200.0 mg/kg/injection, schedule: Q01DX001 (ip), vehicle: Klucel (hydroxypropylcellulose) (HPC) 104 % of control | dose: 400.0 mg/kg/injection, schedule: Q01DX001 (ip), vehicle: Klucel (hydroxypropylcellulose) (HPC) 95 % of control

Oc1ccccc1/C=N\Nc1ccccc1
inactive: [1] 100 % of control | [3] 95 % of control | [4] 103 % of control

Cc1ccc(S(=O)(=O)N(CCCc2c(C)nc(N)[nH]c2=O)c2ccccc2)cc1
inactive: dose: 50.0 mg/kg/injection, schedule: Q01DX009 (ip), vehicle: Klucel (hydroxypropylcellulose) (HPC) 102 % of control | dose: 100.0 mg/kg/injection, schedule: Q01DX009 (ip), vehicle: Klucel (hydroxypropylcellulose) (HPC) 91 % of control | dose: 200.0 mg/kg/injection, schedule: Q01DX009 (ip), vehicle: Klucel (hydroxypropylcellulose) (HPC) 95 % of control

OCNC(=S)SSC(=S)NCO
inactive: [1] 96 % of control | [3] 98 % of control | [4] 98 % of control

CC(=O)OCC1OC(N2C(=O)/C(=C(/C)c3ccncc3)SC2=S)C(OC(C)=O)C(OC(C)=O)C1OC(C)=O (stereo not drawn)
inactive: dose: 25.0 mg/kg/injection, schedule: Q01DX005 (ip), vehicle: water 94 % of control | dose: 50.0 mg/kg/injection, schedule: Q01DX005 (ip), vehicle: water 97 % of control | dose: 100.0 mg/kg/injection, schedule: Q01DX005 (ip), vehicle: water 97 % of control | dose: 200.0 mg/kg/injection, schedule: Q01DX005 (ip), vehicle: water 97 % of control | dose: 400.0 mg/kg/injection, schedule: Q01DX005 (ip), vehicle: water 89 % of control

O=C(c1ccccc1)N(CCCl)C(=O)N(CCCl)C(=O)c1ccccc1
inactive: dose: 75.0 mg/kg/injection, schedule: Q01DX001 (ip), vehicle: carboxymethylcellulose (CMC) 104 % of control | dose: 75.0 mg/kg/injection, schedule: Q01DX009 (ip), vehicle: saline with Tween-80 95 % of control | dose: 75.0 mg/kg/injection, schedule: Q04DX003 (ip), vehicle: saline with Tween-80 91 % of control | dose: 150.0 mg/kg/injection, schedule: Q01DX001 (ip), vehicle: carboxymethylcellulose (CMC) 101 % of control | dose: 150.0 mg/kg/injection, schedule: Q01DX009 (ip), vehicle: saline with Tween-80 98 % of control | dose: 150.0 mg/kg/injection, schedule: Q04DX003 (ip), vehicle: saline with Tween-80 92 % of control | dose: 300.0 mg/kg/injection, schedule: Q01DX001 (ip), vehicle: carboxymethylcellulose (CMC) 103 % of control | dose: 300.0 mg/kg/injection, schedule: Q04DX003 (ip), vehicle: saline with Tween-80 89 % of control

OCC12CCCCC1CC1(CC2)OCCO1 (stereo not drawn)
inactive: dose: 50.0 mg/kg/injection, schedule: Q01DX009 (ip), vehicle: saline with Tween-80 102 % of control | dose: 100.0 mg/kg/injection, schedule: Q01DX009 (ip), vehicle: saline with Tween-80 103 % of control | dose: 100.0 mg/kg/injection, schedule: Q01DX009 (ip), vehicle: saline 100 % of control | dose: 100.0 mg/kg/injection, schedule: Q04DX003 (ip), vehicle: saline with Tween-80 86 % of control | [1] 111 % of control | dose: 200.0 mg/kg/injection, schedule: Q01DX009 (ip), vehicle: saline with Tween-80 96 % of control | [2] 102 % of control | dose: 200.0 mg/kg/injection, schedule: Q04DX003 (ip), vehicle: saline with Tween-80 99 % of control | [3] 106 % of control | dose: 400.0 mg/kg/injection, schedule: Q01DX009 (ip), vehicle: saline 107 % of control | [4] 106 % of control

Cc1ccc(S(=O)(=O)NNC(=O)c2ccc[nH]2)cc1
inactive: dose: 75.0 mg/kg/injection, schedule: Q01DX001 (ip), vehicle: saline 101 % of control | dose: 150.0 mg/kg/injection, schedule: Q01DX001 (ip), vehicle: saline 101 % of control | dose: 300.0 mg/kg/injection, schedule: Q01DX001 (ip), vehicle: saline 96 % of control

N#Cc1nc2c(n(O)c1=N)CCC/C2=C\c1ccc(Cl)c(Cl)c1
inactive: dose: 100.0 mg/kg/injection, schedule: Q04DX002 (ip), vehicle: Klucel (hydroxypropylcellulose) (HPC) 99 % of control | dose: 200.0 mg/kg/injection, schedule: Q04DX002 (ip), vehicle: Klucel (hydroxypropylcellulose) (HPC) 89 % of control | dose: 400.0 mg/kg/injection, schedule: Q04DX002 (ip), vehicle: Klucel (hydroxypropylcellulose) (HPC) 92 % of control
